Data taken from PubChem BioAssay (NCI).
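Growth conditions: 96-well plates. Treatment: test compound, 48 hours, 5 concentrations. Analysis: linear interpolation between bracketing concentrations; unreached endpoints set to highest concentration. GI50 is the concentration that inhibits growth by half. The concentration for full growth arrest is given as TGI.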

Assays:
Assay in all cases: NCI-60 cell line screen, 48 h
SN12C renal = tested on: SN12C renal
SNB-19 CNS = tested on: SNB-19 CNS
HL-60(TB) leukemia = tested on: HL-60(TB) leukemia
IGROV1 ovarian = tested on: IGROV1 ovarian
786-0 renal = tested on: 786-0 renal
COLO 205 colon = tested on: COLO 205 colon
SF-268 CNS = tested on: SF-268 CNS
UO-31 renal = tested on: UO-31 renal
MOLT-4 leukemia = tested on: MOLT-4 leukemia
HT29 colon = tested on: HT29 colon
OVCAR-5 ovarian = tested on: OVCAR-5 ovarian
PC-3 prostate = tested on: PC-3 prostate
M14 melanoma = tested on: M14 melanoma
TK-10 renal = tested on: TK-10 renal
NCI-H460 lung = tested on: NCI-H460 lung
A549 NSCLC = tested on: A549 NSCLC
SK-MEL-2 melanoma = tested on: SK-MEL-2 melanoma
U251 CNS = tested on: U251 CNS
SF-295 CNS = tested on: SF-295 CNS
NCI-H23 lung = tested on: NCI-H23 lung
UACC-257 melanoma = tested on: UACC-257 melanoma
LOX IMVI melanoma = tested on: LOX IMVI melanoma
MCF7 breast = tested on: MCF7 breast
NCI-H522 lung = tested on: NCI-H522 lung
RXF 393 renal = tested on: RXF 393 renal
CCRF-CEM leukemia = tested on: CCRF-CEM leukemia
K-562 leukemia = tested on: K-562 leukemia
HCT-116 colon = tested on: HCT-116 colon
SK-MEL-28 melanoma = tested on: SK-MEL-28 melanoma
SF-539 CNS = tested on: SF-539 CNS
OVCAR-4 ovarian = tested on: OVCAR-4 ovarian
T-47D breast = tested on: T-47D breast
OVCAR-8 ovarian = tested on: OVCAR-8 ovarian
OVCAR-3 ovarian = tested on: OVCAR-3 ovarian
HOP-62 NSCLC = tested on: HOP-62 NSCLC
EKVX NSCLC = tested on: EKVX NSCLC
NCI-H226 lung = tested on: NCI-H226 lung
ACHN renal = tested on: ACHN renal
MDA-MB-435 = tested on: MDA-MB-435
SW-620 colon = tested on: SW-620 colon
UACC-62 melanoma = tested on: UACC-62 melanoma
HCC-2998 colon = tested on: HCC-2998 colon
SK-OV-3 ovarian = tested on: SK-OV-3 ovarian
A498 renal = tested on: A498 renal
HOP-92 NSCLC = tested on: HOP-92 NSCLC
KM12 colon = tested on: KM12 colon
MALME-3M melanoma = tested on: MALME-3M melanoma
SR leukemia = tested on: SR leukemia
DU-145 prostate = tested on: DU-145 prostate
SNB-75 CNS = tested on: SNB-75 CNS
NCI/ADR-RES ovarian = tested on: NCI/ADR-RES ovarian
MDA-MB-231 breast = tested on: MDA-MB-231 breast
CAKI-1 renal = tested on: CAKI-1 renal
HCT-15 colon = tested on: HCT-15 colon
SK-MEL-5 melanoma = tested on: SK-MEL-5 melanoma
BT-549 breast = tested on: BT-549 breast
HS 578T breast = tested on: HS 578T breast
RPMI-8226 leukemia = tested on: RPMI-8226 leukemia

O=C(O)CCC(NC(=O)c1ccc(OCc2nc3cc(C(F)(F)F)ccc3nc2-c2ccccc2)cc1)C(=O)O (stereo not drawn)
TGI (SN12C renal): > 100000 nM
TGI (SNB-19 CNS): > 100000 nM
TGI (HL-60(TB) leukemia): > 100000 nM
TGI (IGROV1 ovarian): > 100000 nM
TGI (786-0 renal): > 100000 nM
TGI (COLO 205 colon): > 100000 nM
TGI (SF-268 CNS): > 100000 nM
TGI (UO-31 renal): > 100000 nM
TGI (MOLT-4 leukemia): > 100000 nM
TGI (HT29 colon): > 100000 nM
TGI (OVCAR-5 ovarian): > 100000 nM
TGI (PC-3 prostate): > 100000 nM
TGI (M14 melanoma): > 100000 nM
TGI (TK-10 renal): > 100000 nM
TGI (NCI-H460 lung): > 100000 nM
TGI (A549 NSCLC): > 100000 nM
TGI (SK-MEL-2 melanoma): > 100000 nM
TGI (U251 CNS): > 100000 nM
TGI (SF-295 CNS): > 100000 nM
TGI (NCI-H23 lung): > 100000 nM
TGI (UACC-257 melanoma): > 100000 nM
TGI (LOX IMVI melanoma): > 100000 nM
TGI (MCF7 breast): > 100000 nM
TGI (NCI-H522 lung): > 100000 nM
TGI (RXF 393 renal): > 100000 nM
TGI (CCRF-CEM leukemia): > 100000 nM
TGI (K-562 leukemia): > 100000 nM
TGI (HCT-116 colon): > 100000 nM
TGI (SK-MEL-28 melanoma): > 100000 nM
TGI (SF-539 CNS): > 100000 nM
TGI (OVCAR-4 ovarian): > 100000 nM
TGI (T-47D breast): > 100000 nM
TGI (OVCAR-8 ovarian): > 100000 nM
TGI (OVCAR-3 ovarian): > 100000 nM
TGI (HOP-62 NSCLC): > 100000 nM
TGI (EKVX NSCLC): > 100000 nM
TGI (NCI-H226 lung): > 100000 nM
TGI (ACHN renal): > 100000 nM
TGI (MDA-MB-435): > 100000 nM
TGI (SW-620 colon): > 100000 nM
TGI (UACC-62 melanoma): > 100000 nM
TGI (HCC-2998 colon): > 100000 nM
TGI (SK-OV-3 ovarian): > 100000 nM
TGI (A498 renal): > 100000 nM
TGI (HOP-92 NSCLC): > 100000 nM
TGI (KM12 colon): > 100000 nM
TGI (MALME-3M melanoma): > 100000 nM
TGI (SR leukemia): > 100000 nM
TGI (DU-145 prostate): > 100000 nM
TGI (SNB-75 CNS): > 100000 nM
TGI (NCI/ADR-RES ovarian): > 100000 nM
TGI (MDA-MB-231 breast): > 100000 nM
TGI (CAKI-1 renal): > 100000 nM
TGI (HCT-15 colon): > 100000 nM

O=C(CCl)N1c2ccccc2Oc2ccc3ccccc3c21
GI50 (SNB-19 CNS): 1860 nM
TGI (SNB-19 CNS): 3440 nM
GI50 (HL-60(TB) leukemia): 1450 nM
TGI (HL-60(TB) leukemia): 4860 nM
GI50 (IGROV1 ovarian): 830 nM
TGI (IGROV1 ovarian): 2530 nM
GI50 (786-0 renal): 2050 nM
TGI (786-0 renal): 3560 nM
GI50 (COLO 205 colon): 894 nM
TGI (COLO 205 colon): 2350 nM
GI50 (SF-268 CNS): 1520 nM
TGI (SF-268 CNS): 2940 nM
GI50 (UO-31 renal): 1170 nM
TGI (UO-31 renal): 2530 nM
GI50 (SK-MEL-5 melanoma): 1590 nM
TGI (SK-MEL-5 melanoma): 2980 nM
GI50 (BT-549 breast): 1790 nM
TGI (BT-549 breast): 3560 nM
GI50 (MOLT-4 leukemia): 339 nM
TGI (MOLT-4 leukemia): 1950 nM
GI50 (HT29 colon): 432 nM
TGI (HT29 colon): 1510 nM
GI50 (OVCAR-5 ovarian): 1810 nM
TGI (OVCAR-5 ovarian): 3590 nM
GI50 (PC-3 prostate): 1720 nM
TGI (PC-3 prostate): 3620 nM
GI50 (M14 melanoma): 1140 nM
TGI (M14 melanoma): 2560 nM
GI50 (TK-10 renal): 769 nM
TGI (TK-10 renal): 1700 nM
GI50 (HS 578T breast): 2290 nM
GI50 (NCI-H460 lung): 2000 nM
TGI (NCI-H460 lung): 4110 nM
GI50 (A549 NSCLC): 1900 nM
TGI (A549 NSCLC): 3810 nM
GI50 (SK-MEL-2 melanoma): 1140 nM
TGI (SK-MEL-2 melanoma): 2670 nM
GI50 (U251 CNS): 1360 nM
TGI (U251 CNS): 2700 nM
GI50 (SF-295 CNS): 2410 nM
TGI (SF-295 CNS): 5920 nM
GI50 (NCI-H23 lung): 1310 nM
TGI (NCI-H23 lung): 3080 nM
GI50 (UACC-257 melanoma): 1530 nM
TGI (UACC-257 melanoma): 3160 nM
GI50 (LOX IMVI melanoma): 347 nM
TGI (LOX IMVI melanoma): 1410 nM
GI50 (NCI-H522 lung): 614 nM
TGI (NCI-H522 lung): 1900 nM
GI50 (RXF 393 renal): 1730 nM
TGI (RXF 393 renal): 3170 nM
GI50 (CCRF-CEM leukemia): 163 nM
TGI (CCRF-CEM leukemia): 3390 nM
GI50 (K-562 leukemia): 310 nM
TGI (K-562 leukemia): 1420 nM
GI50 (HCT-116 colon): 358 nM
TGI (HCT-116 colon): 1290 nM
GI50 (RPMI-8226 leukemia): 768 nM
TGI (RPMI-8226 leukemia): 3120 nM
GI50 (SK-MEL-28 melanoma): 1830 nM
TGI (SK-MEL-28 melanoma): 3340 nM
GI50 (SF-539 CNS): 1590 nM
TGI (SF-539 CNS): 3100 nM
GI50 (OVCAR-4 ovarian): 1440 nM
TGI (OVCAR-4 ovarian): 3340 nM
GI50 (T-47D breast): 1690 nM
TGI (T-47D breast): 4150 nM
GI50 (OVCAR-8 ovarian): 780 nM
TGI (OVCAR-8 ovarian): 2280 nM
GI50 (OVCAR-3 ovarian): 1230 nM
TGI (OVCAR-3 ovarian): 2640 nM
GI50 (HOP-62 NSCLC): 1810 nM
TGI (HOP-62 NSCLC): 3250 nM
GI50 (EKVX NSCLC): 2200 nM
TGI (EKVX NSCLC): 5900 nM
GI50 (NCI-H226 lung): 1630 nM
TGI (NCI-H226 lung): 3260 nM
GI50 (ACHN renal): 1370 nM
TGI (ACHN renal): 2820 nM
GI50 (MDA-MB-435): 577 nM
TGI (MDA-MB-435): 1880 nM
GI50 (SW-620 colon): 373 nM
TGI (SW-620 colon): 1480 nM
GI50 (UACC-62 melanoma): 1570 nM
TGI (UACC-62 melanoma): 3000 nM
GI50 (HCC-2998 colon): 1860 nM
TGI (HCC-2998 colon): 3590 nM
GI50 (SK-OV-3 ovarian): 2510 nM
TGI (SK-OV-3 ovarian): 6090 nM
GI50 (A498 renal): 2440 nM
TGI (A498 renal): 6970 nM
GI50 (HOP-92 NSCLC): 1590 nM
TGI (HOP-92 NSCLC): 3310 nM
GI50 (KM12 colon): 1800 nM
TGI (KM12 colon): 3300 nM
GI50 (MALME-3M melanoma): 1330 nM
TGI (MALME-3M melanoma): 2910 nM
GI50 (SR leukemia): 305 nM
TGI (SR leukemia): 1060 nM
GI50 (DU-145 prostate): 1170 nM
TGI (DU-145 prostate): 2530 nM
GI50 (SNB-75 CNS): 1470 nM
TGI (SNB-75 CNS): 2820 nM
GI50 (NCI/ADR-RES ovarian): 2360 nM
TGI (NCI/ADR-RES ovarian): > 24000 nM
GI50 (MDA-MB-231 breast): 1280 nM
TGI (MDA-MB-231 breast): 2810 nM
GI50 (CAKI-1 renal): 1020 nM
TGI (CAKI-1 renal): 3800 nM
